From US9944699B2, “In vitro method for identifying compounds of the Nav 1.9 sodium channel intended for the treatment of an inflammatory skin disease” (GALDERMA RESEARCH & DEVELOPMENT, priority 2013, dated 2018)
“Also recorded” adds a separate entry of the source.

Key:
Nav 1.8 = Nav 1.8 (Homo sapiens, UniProt Q9Y5Y9); conditions: cited from earlier work
Nav 1.9 = Nav 1.9 (Homo sapiens, UniProt Q9UI33); conditions: cited from earlier work
Nav 1.5 = Nav 1.5 (Homo sapiens, UniProt Q14524); conditions: cited from earlier work
Nav 1.5, sequence (Q14524 whole entry, looked up): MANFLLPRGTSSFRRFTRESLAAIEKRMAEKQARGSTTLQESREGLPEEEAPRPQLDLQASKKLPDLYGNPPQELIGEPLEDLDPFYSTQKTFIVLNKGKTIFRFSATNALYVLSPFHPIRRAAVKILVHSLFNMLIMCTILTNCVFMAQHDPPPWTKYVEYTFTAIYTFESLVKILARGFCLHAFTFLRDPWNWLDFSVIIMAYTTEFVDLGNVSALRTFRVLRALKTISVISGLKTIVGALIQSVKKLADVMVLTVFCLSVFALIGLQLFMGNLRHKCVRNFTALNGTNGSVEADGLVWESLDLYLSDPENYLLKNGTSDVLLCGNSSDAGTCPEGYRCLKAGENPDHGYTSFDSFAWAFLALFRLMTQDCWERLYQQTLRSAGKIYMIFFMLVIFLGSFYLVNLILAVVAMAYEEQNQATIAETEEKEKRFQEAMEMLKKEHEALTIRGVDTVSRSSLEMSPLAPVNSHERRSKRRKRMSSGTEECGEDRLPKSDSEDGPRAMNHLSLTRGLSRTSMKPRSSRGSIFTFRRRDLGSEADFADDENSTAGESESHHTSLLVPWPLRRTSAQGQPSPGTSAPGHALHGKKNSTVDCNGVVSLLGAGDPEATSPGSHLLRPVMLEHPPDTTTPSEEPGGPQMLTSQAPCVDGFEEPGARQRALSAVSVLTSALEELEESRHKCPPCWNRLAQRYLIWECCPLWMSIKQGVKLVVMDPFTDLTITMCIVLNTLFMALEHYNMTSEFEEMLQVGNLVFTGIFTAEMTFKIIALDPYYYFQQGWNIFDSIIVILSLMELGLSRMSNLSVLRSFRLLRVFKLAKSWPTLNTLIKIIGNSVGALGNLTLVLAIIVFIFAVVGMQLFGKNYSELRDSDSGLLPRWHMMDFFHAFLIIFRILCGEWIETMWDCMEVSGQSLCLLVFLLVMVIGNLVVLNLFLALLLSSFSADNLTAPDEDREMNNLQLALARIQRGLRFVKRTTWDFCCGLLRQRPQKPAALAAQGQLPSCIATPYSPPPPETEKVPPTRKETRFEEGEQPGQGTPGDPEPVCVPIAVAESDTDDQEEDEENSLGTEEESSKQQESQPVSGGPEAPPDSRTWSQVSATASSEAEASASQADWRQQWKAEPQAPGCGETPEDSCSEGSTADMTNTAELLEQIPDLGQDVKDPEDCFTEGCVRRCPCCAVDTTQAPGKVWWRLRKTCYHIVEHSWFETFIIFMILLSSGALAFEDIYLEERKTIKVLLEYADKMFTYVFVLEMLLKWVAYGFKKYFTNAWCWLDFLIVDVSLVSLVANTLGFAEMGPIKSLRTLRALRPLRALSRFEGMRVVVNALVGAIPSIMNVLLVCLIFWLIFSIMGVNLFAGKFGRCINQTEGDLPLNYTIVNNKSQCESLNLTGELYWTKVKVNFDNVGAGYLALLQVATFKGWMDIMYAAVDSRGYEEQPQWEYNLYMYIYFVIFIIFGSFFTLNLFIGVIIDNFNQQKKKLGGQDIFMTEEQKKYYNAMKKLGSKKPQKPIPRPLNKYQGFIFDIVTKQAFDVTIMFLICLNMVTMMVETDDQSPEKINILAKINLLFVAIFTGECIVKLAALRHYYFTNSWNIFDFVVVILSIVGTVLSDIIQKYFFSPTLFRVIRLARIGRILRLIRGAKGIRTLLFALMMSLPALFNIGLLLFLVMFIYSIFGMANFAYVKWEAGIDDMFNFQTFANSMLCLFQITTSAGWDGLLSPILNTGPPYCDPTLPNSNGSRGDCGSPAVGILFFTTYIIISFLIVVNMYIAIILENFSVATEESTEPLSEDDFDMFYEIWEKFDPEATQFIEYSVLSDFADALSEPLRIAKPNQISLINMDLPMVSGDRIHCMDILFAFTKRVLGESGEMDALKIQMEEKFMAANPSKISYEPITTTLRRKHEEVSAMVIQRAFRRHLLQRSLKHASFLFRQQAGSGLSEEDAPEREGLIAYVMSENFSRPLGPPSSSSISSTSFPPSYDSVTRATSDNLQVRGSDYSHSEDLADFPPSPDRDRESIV

[1] = test system: primary cultures of neurones from spinal ganglia of KO mice for Nav 1.9; test: Release of CGRP by primary neurone cultures after treatment with capsaicin (ELISA), Nav 1.9 KO mice; type: cell-based, mouse; conditions: capsaicin 300 nM, 15 min; neurone cultures from Nav 1.9 KO mice; versus without treatment

Nav 1.9, sequence (Q9UI33 whole entry, looked up): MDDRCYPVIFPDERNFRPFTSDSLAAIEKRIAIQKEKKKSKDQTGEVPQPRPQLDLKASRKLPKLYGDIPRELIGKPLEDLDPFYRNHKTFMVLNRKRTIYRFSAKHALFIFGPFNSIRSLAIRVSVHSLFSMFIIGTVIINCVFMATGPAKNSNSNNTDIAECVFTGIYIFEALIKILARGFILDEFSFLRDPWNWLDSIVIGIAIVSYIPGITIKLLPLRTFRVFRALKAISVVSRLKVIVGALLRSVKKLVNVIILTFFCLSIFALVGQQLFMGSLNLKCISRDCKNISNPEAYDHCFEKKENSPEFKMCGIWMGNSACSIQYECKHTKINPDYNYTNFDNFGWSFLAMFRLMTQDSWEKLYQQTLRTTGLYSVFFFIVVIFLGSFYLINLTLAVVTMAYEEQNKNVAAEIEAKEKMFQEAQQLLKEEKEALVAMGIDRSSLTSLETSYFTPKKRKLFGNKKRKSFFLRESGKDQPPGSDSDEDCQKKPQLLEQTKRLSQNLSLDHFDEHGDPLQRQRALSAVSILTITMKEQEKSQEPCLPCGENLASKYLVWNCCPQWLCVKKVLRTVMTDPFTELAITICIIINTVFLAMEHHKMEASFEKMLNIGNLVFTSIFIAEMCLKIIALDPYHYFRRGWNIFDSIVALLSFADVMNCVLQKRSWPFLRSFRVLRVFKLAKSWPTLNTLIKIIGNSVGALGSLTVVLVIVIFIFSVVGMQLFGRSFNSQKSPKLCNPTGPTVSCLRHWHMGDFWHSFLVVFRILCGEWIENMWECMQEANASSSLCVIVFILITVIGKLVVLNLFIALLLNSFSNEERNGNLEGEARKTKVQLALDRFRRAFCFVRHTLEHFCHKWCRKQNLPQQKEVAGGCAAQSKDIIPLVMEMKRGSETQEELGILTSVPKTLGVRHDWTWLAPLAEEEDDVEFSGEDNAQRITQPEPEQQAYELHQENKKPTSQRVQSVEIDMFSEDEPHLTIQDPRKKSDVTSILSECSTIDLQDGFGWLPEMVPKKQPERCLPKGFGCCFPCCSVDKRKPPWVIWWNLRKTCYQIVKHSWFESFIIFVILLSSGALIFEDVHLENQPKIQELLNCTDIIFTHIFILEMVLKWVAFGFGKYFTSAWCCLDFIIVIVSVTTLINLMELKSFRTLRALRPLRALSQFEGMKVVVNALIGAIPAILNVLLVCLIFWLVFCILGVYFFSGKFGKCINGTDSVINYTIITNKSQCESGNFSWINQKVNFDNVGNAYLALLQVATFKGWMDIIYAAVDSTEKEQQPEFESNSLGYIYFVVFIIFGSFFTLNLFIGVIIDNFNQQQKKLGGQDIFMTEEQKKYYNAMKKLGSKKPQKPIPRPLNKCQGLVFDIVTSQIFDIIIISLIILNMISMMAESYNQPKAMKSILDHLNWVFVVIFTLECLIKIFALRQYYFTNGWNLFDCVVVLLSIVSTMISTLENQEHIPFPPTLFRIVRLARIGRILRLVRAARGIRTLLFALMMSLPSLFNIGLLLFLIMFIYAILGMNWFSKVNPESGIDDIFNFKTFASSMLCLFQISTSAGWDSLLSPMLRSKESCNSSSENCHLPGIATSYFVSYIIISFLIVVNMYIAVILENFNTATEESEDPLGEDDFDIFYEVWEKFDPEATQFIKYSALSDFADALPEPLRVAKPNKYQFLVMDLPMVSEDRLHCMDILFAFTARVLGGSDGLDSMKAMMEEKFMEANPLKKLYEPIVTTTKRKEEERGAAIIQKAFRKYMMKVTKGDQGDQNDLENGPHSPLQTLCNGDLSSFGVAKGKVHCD

Compound | sensitivity to tetrodotoxin (TTX) (Nav 1.8) | sensitivity to tetrodotoxin (TTX) (Nav 1.9) | EC50 (Nav 1.9; read-out: EC50 of the TTX for Nav 1.9) | sensitivity to tetrodotoxin (TTX) (Nav 1.5) | variation in the amount of CGRP released in the supernatant [1]
NC1=N[C@H](O)[C@H]2[C@H]3O[C@]4(O)O[C@@H]([C@@H](O)[C@@]2(N1)[C@@H]4O)[C@]3(O)CO [TTX, tetrodotoxin] | resistant | resistant | ~200 µM | resistant | 
COc1cc(CNC(=O)CCCC/C=C/C(C)C)ccc1O [capsaicin] |  |  |  |  | no variation; also recorded: no increase
